This is an account of results in patent US7700622B2, “p-38 kinase inhibitors” (Novartis AG, priority 2003, dated 2010).

A value given as a limit tells only on which side of the number the result lay.

For orientation: IC50 means the concentration that inhibits the measured activity by half.

The target in this test is T1, p38α kinase (Homo sapiens, UniProt Q16539).
T1 construct: purchased Upstate
T1 sequence (Q16539 whole entry): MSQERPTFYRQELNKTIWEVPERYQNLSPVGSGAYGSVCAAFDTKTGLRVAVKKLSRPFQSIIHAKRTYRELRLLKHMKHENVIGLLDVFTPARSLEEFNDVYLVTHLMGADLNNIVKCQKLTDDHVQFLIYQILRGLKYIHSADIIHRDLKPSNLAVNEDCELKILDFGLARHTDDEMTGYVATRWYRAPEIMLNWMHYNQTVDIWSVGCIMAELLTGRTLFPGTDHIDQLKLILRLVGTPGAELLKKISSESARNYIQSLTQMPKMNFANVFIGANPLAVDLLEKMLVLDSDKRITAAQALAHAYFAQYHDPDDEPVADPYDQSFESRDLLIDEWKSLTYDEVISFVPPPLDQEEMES
Kind of test: p38α assay (coupled ADP/NADH oxidation kinase assay). It is filed as biochemical. Also noted: scale not given here. Particulars: 60 min preincubation with p38α, 0.15 mM ATP, 37° C.; read-out: Activity (p-38) IC50. As for the experimental part:
cDNAs of human p38α and β were cloned by PCR. The α and β cDNAs were subcloned into DEST2 plasmid (Gateway, InVitrogen). His6-p38 fusion protein was expressed in E. coli and purified from bacterial lysates by affinity chromatography using Ni^+2-NTA-agarose. His6-p38 protein was activated by incubating with constitutively active MKK6. Active p38 was separated from MKK6 by affinity chromatography. Constitutively active MKK6 was generated in a manner similar to Raingeaud et al. [Mol. Cell.
The p38α assay employed is based on measurement of ADP released in the reaction of interest through NADH oxidation obtained by coupling with pyruvate kinase and lactate dehydrogenase reactions. The assays were performed in 384-well UV-plates. The final volume was 25 uL prepared from the addition of 2.5 uL compound dissolved in 10% DMSO, 17.5 uL of assay buffer and 5 uL of ATP. […] Test compounds are preincubated with p38α for 60 min and the reaction started by addition of ATP to 0.15 mM final concentration. Reaction rates were measured at 340 nm using SpectraMax plate-reading spectrophotometer for 10 min at 37° C. Inhibition data were analyzed by non-linear least squares regression using SigmaPlot.
For `CC(=O)Nc1cc(-c2cc(C(=O)NC3CC3)ccc2C)ccc1C(=O)c1ccccc1` [Example 17, 3′-Acetylamino4′-benzoyl-6-methyl-biphenyl-3-carboxylic acid cyclopropylamide], the IC50 is under 1000 nM.

For `Cc1ccc(C(=O)NC2CC2)cc1-c1ccc(-c2nnco2)cc1` [Example 1, 6-Methyl4′-[1,3,4]oxadiazol-2-yl-biphenyl-3-carboxylic acid cyclopropylamide], the half-inhibitory concentration (IC50) is under 1000 nM.

Take `Cc1ccc(C(=O)NC2CC2)cc1-c1ccc2c(-c3ccccc3)ncnc2c1` [Example 16, N-Cyclopropyl-4-methyl-3-(4-phenyl-quinazolin-7-yl)-benzamide]: the IC50 is under 1000 nM.

With `Cc1ccc(C(=O)NC2CC2)cc1-c1ccc(C(=O)c2ccccc2)c(N)c1` [Example 14, 3′-Amino-4′-benzoyl-6-methyl-biphenyl-3-carboxylic acid cyclopropylamide], the concentration for half-maximal inhibition (IC50) is under 1000 nM.

`COc1ccc(Cn2cnc3cc(-c4cc(C(=O)NC5CC5)ccc4C)ccc3c2=O)cc1` [Example 9, N-Cyclopropyl-3-[3-(4-methoxy-benzyl)-4-oxo-3,4-dihydro-quinazolin-7-yl]-4-methyl-benzamide]: the IC50 was under 1000 nM.

With `COc1ccc(CNC(=O)c2ccc(-c3cc(C(=O)NC4CC4)ccc3C)nc2)cc1` [Example 12, 6-(5-Cyclopropylcarbamoyl-2-methyl-phenyl)-N-(4-methoxy-benzyl)-nicotinamide], the IC50 was under 1000 nM.

With `Cc1ccc(C(=O)NC2CC2)cc1-c1ccc2c(-c3ccccc3)nc(=O)[nH]c2c1` [Example 15, N-Cyclopropyl-4-methyl-3-(2-oxo-4-phenyl-1,2-dihydro-quinazolin-7-yl)-benzamide], the half-maximal inhibitory concentration (IC50) was under 1000 nM.

For the molecule `Cc1ccc(C(=O)NC2CC2)cc1-c1ccc2c(=O)n(Cc3ccccc3)cnc2c1` [Example 6, 3-(3-Benzyl-4-oxo-3,4-dihydro-quinazolin-7-yl)-N-cyclopropyl-4-methyl-benzamide], the IC50 was under 1000 nM.

In the case of `Cc1nnc(-c2ccc(-c3cc(C(=O)NC4CC4)ccc3C)nc2)o1` [Example 5, N-Cyclopropyl-4-methyl-3-[5-(5-methyl-[1,3,4]oxadiazol-2-yl)-pyridin-2-yl]-benzamide], the IC50 was under 1000 nM.

Consider `Cc1ccc(C(=O)NC2CC2)cc1-c1ccc(-c2nnco2)cn1` [Example 4, N-Cyclopropyl-4-methyl-3-(5-[1,3,4]oxadiazol-2-yl-pyridin-2-yl)-benzamide], for which the IC50 was under 1000 nM.

As for `Cc1ccc(C(=O)NC2CC2)cc1-c1ccc2c(=O)[nH]cnc2c1` [Example 10, N-Cyclopropyl-4-methyl-3-(4-oxo-3,4-dihydro-quinazolin-7-yl)-benzamide], the 50% inhibitory concentration (IC50) is under 1000 nM.

For `Cc1ccc(C(=O)NC2CC2)cc1-c1ccc2c(=O)n(Cc3c(Cl)cccc3Cl)cnc2c1` [Example 7, N-Cyclopropyl-3-[3-(2,6-dichloro-benzyl)-4-oxo-3,4-dihydro-quinazolin-7-yl]-4-methyl-benzamide], the concentration for half-maximal inhibition (IC50) was under 1000 nM.

For the molecule `Cc1ccc(C(=O)NC2CC2)cc1-c1ccc2c(=O)n(Cc3ccc(Cl)c(Cl)c3)cnc2c1` [Example 8, N-Cyclopropyl-3-[3-(3,4-dichloro-benzyl)-4-oxo-3,4-dihydro-quinazolin-7-yl]-4-methyl-benzamide], the IC50 was under 1000 nM.

Take `Cc1ccc(C(=O)NC2CC2)cc1-c1ccc(C(=O)c2ccccc2)cc1` [Example 11, 4′-Benzoyl-6-methyl-biphenyl-3-carboxylic acid cyclopropylamide]: the IC50 is under 1000 nM.

With `COc1ccc(CNC(=O)c2cnc(-c3cc(C(=O)NC4CC4)ccc3C)nc2N)cc1` [Example 13, N-(4-Methoxybenzyl)-2-[(5-cyclopropylaminocarbonyl)-2-methylphenyl]-4-aminopyrimidine-5-carboxyamide], the IC50 is under 1000 nM.

For the molecule `Cc1ccc(C(=O)NC2CC2)cc1-c1ccc(-c2nnc[nH]2)cc1` [Example 3, 6-Methyl4′-(4H-[1,2,4]triazol-3-yl)-biphenyl-3-carboxylic acid cyclopropylamide], the concentration for half-maximal inhibition (IC50) was under 1000 nM.
